The nature of data set [1]: Acid and organic solution stability, HPLC-UV 250 nm. As to conditions: for Colour of solution: by Day 9; for Degradation / conversion to ezogabine in solution: up to 3 weeks, acidic solutions and organic solvents; for Ezogabine Area: room temp., normal light. As for the experimental part:
An HPLC-UV Vis method was developed using 0.1% Formic acid in water as mobile phase A and 0.1% Formic acid in acetonitrile as mobile Phase B. A gradient method was developed ramping from 10% A to 90% B over 8 minutes and then returning to 10% A at 8.5 minutes on a 4.6×50 mm Zorbax C-18 column. Injections of 10 uL of stability solutions were injected for analyte detection.
[…] Aliquots were collected at serial time points and then diluted to a nominal concentration of 100 ug/mL for injection to the HPLC and 250 nm monitored by the diode array detector. Data at approximately 10 days is presented.
Aliquots were collected at serial time points and then diluted to a nominal concentration of 100 ug/mL for injection to the HPLC and 250 nm monitored by the diode array detector.
(§1) It was also evaluated at 2 N HCl at 37° C. Aliquots were collected at serial time points and then diluted to a nominal concentration of 100 ug/mL for injection to the HPLC and 250 nm monitored by the diode array detector.
as §1, §1, §1

Data set [2] in a line: Pharmacokinetics of ezogabine prodrugs in mouse (SC, PO). As to conditions: male mice, PO 20 mg/kg, plasma. As for the experimental part:
(§2) Blood was diluted by 10% with these stabilizers.
(§3) Extraction of the molecules was conducted by taking a 50 uL aliquot of plasma and adding 200 uL of acetonitrile containing 200 ng/mL tolbutamide as the internal standard. Samples were precipitated in a 96 well plate, centrifuges and an aliquot transferred to a new plate, dried down under heat and nitrogen and then reconstituted in the initial mobile phase conditions of the LC-MS/MS method. […] A standard curve was prepared from 5000 ng/mL to 1 ng/mL for each analyte. Concentration data from the bioanalytical run was analyzed by Phoenix Winnonlin version 8 for noncompartmental sparse sampling PK analysis, plotting of concentration time curves and tabulation of PK parameters.
Animals were asphyxiated by carbon dioxide gas, blood was collected by cardiac stick and they were euthanized by cervical dislocation.

For data set [3] the following is noted: human, in vivo; cited from earlier work.
A short description of data set [4]: Pharmacokinetics of ezogabine prodrugs in rat (IV, IM, PO). As to conditions: male Sprague Dawley rats, PO 20 mg/kg. As for the experimental part:
as §2
as §3, with “noncompartmental” for “noncompartmental sparse sampling”
150 uL of blood were collected at predesignated time points. At completion of the study animals were asphyxiated by carbon dioxide gas and exsanguinated for euthanasia.

For data set [5] the following is noted: in solvent, exposed to light; known; cited from earlier work.
The nature of data set [6]: Rat PK at equimolar dose to Ezogabine in 0.5% methylcellulose. The settings on record: for AUClast/D, analyte = dosed prodrug: male, rat, in vivo, 20 mg/kg; for Exposure of ezogabine compared with ezogabine itself (dose normalized AUC): rats, equimolar dose to Ezogabine (20 mg/kg). The protocol:
(§4) Blood samples were collected at the same time points over 24 hours to generate a concentration time profile. Two male rats were dosed per group. Plasma samples were analyzed by LC/MS/MS and the resulting concentration time profiles and PK parameters are provided.
as §4, §4

Data set [7] can be described thus: Drug concentration analysis after MES in CF-1 mice. As to conditions: for Plasma concentration of Compound 1 relative to administration of Compound 1 alone: CF-1, mouse, in vivo, ip. From the text: (§5) Each male CF-1 mouse provided one data point in the MES assay and one data point in the concentration analysis. There were 8 mice per time point.
In data set [8] the test system is CCI model of neuropathic pain. Kind of data set: CCI model of neuropathic pain (pin prick, von Frey). The settings on record: male Sprague Dawley rats. The class given is in vivo, rat. The protocol: Compound 3 was tested for reversal of mechanical hypersensitivity to the pin prick test for hindlimb paw withdraw and the von Frey hairs for gram force mechanical allodynia in the CCI model of neuropathic pain. Male Sprague Dawley rats (n=8/group) were tested for baseline sensitivity on Day 1 (ipsilateral and contralateral paws) and administered XYG-203 orally; 40 mg/kg on Day 1, 20 mg/kg Day 3, 10 mg/kg Day 5, 5 mg/kg Day 7, 1 mg/kg Day 10 and baseline on Day 12. Mechanical hypersensitivity was tested 1 h after pretreatment. Data (mean±SD) were analyzed with a repeated measures ANOVA with Dunnet's adjustment for multiple comparisons.

The nature of data set [9]: Benchtop solution stability exposed to light, HPLC-UV 230 nm. It is filed as physicochemical. As for the experimental part: Compounds in solvent were left on the benchtop exposed to light for up to 7 days since it is known that Compound 1 will degrade with light within 3-7 days.
Stability was assessed by taking an aliquot from the solubility vials at each test day. A single replicate was injected for each test condition.
Samples were injected onto an HPLC system with an aqueous mobile phase and acetonitrile organic phase and compounds were separated on a C8 50×2 mm column. Wavelength 230 nm was monitored for absorption and integrated for peak area while the mass spectrometer was used to confirm mass. Samples were tested on Day 1 and on subsequent days through Day 7.

For data set [10], the system named is 5% formalin intraplantar injection. Kind of data set: Formalin inflammatory model (hind paw flicks/licks). The class given is in vivo, mouse. As to conditions: 100 mg/kg in water SC 30 minutes before 5% formalin; both phases (0-10 min, 15-40 min). As for the experimental part: Compound 4 was assessed in the rat formalin inflammatory model. The number of flicks/licks of a male CD-1 mouse in the acute phase 0-10 minute and the inflammatory phase from 15-40 min after intraplantar administration of 50 μL of 5% formalin was recorded. […] Data is presented over the duration of the observation periods in 2 minute bins.

The conditions of data set [11]: rat, 6 h, 1000 ng/mL. The protocol:
Plasma was collected by the biomaterial vendor and kept frozen at −20° C.
The samples were analyzed by HPLC separation and mass spectrometry detection for prodrug amount, relative to a baseline time 0 control sample. Triplicate samples were generated at each time point and the peak area response was averaged and converted to a percent of baseline control.

In data set [12] the test system is MES Induced Seizures. Put plainly: Maximal electroshock (MES) test in SD rats. The class given is in vivo, rat. As to conditions: IM 75 mg/kg.
Protocol: All treatments were at 0.083, 0.25, 0.5, 1, 2, 4, and 8 hours prior to the administration of MES test, where 6 seconds where 6 seconds without a seizure was considered protected.
Data set [13] relates to MES induced seizures. Put plainly: Maximal electroshock (MES) test in CF-1 mice. It is filed as in vivo, mouse. The settings on record: IP 1.5, 3, 6, 12 and 24 mg/kg. As for the experimental part:
All treatments were administered 30 minutes prior to MES, except for Phenytoin which was administered 1 h prior.
as §5

In the case of `CCOC(=O)Nc1ccc(NCc2ccc(F)cc2)cc1N` [Compound 1, Ezogabine], the “Day by which solution was turning light purple (indicating degradation)” value in data set [1] (5 mg/mL, acid solutions, room temperature) is recorded as “up to 2 Day”. Besides, the “Day at which solution began turning purple” value in [1] (5 mg/mL, organic solvent solutions, room temperature) is at least 7 days. The “Cmax/D, analyte Cmpd 1” value in data set [2] amounted to 148 ng/mL/mg/kg. Moreover, in data set [2] (AUClast 6 h), the “AUClast/D, analyte Cmpd 1” value was 190 ng·h/mL/mg/kg. Moreover, in [3], the “Adverse reaction rate: abnormal coordination” value was 7%, the “Adverse reaction rate: aphasia” value is 4%, the “Adverse reaction rate: asthenia” value is given as 5% and the “Adverse reaction rate: balance disorder” value is given as 4%. In data set [3], the “Adverse reaction rate: blurred vision” value is listed as 5%, the “Adverse reaction rate: confusional state” value is 9%, the “Adverse reaction rate: diplopia” value was 7% and the “Adverse reaction rate: disturbance in attention” value was 6%. In addition, in [3], the “Adverse reaction rate: dizziness” value is 23%, the “Adverse reaction rate: dysarthria” value was 4%, the “Adverse reaction rate: fatigue” value was 15% and the “Adverse reaction rate: gait disturbance” value is 4%. Also, in [3], the “Adverse reaction rate: memory impairment” value is on record as 6%, the “Adverse reaction rate: somnolence” value is 22%, the “Adverse reaction rate: tremor” value is 8% and the “Adverse reaction rate: vertigo” value was 8%. The “Cmax/D, analyte Cmpd 1” value in data set [4] is reported as 44.8 ng/mL/mg/kg. For the same compound, the “AUClast/D, analyte Cmpd 1” value in data set [4] (AUClast […] h) stood at 280 ng·h/mL/mg/kg. In data set [5], the “Time within which compound degrades with light” value was 3 to 7 days.
On to `CCOC(=O)Nc1ccc(NCc2ccc(F)cc2)cc1NC(=O)OC(C)OC(=O)C(C)C` (stereo not shown) [Compound 3], for which the Colour of solution result in data set [1] (5 mg/mL, 0.1 N HCl) is given as “turned a light tan”; in data set [1] (5 mg/mL, 1 N HCl), “turned a golden yellow”. Moreover, in data set [1] (5 mg/mL, organic solvents), the “Solution clear and colorless through” value is at least 18 days. Also, the “Degradation / conversion to ezogabine in solution” value (shortened to “Degradation / conversion”) in data set [1] (5 mg/mL) was “converts to ezogabine under acidic conditions but does not in organic solvent”. The “Ezogabine Area” value is on record as 400 mAU in [1] (0.1N HCl, 433 h); 51 mAU in [1] (Acetonitrile, 435 h); 43 mAU in [1] (Ethanol, 390 h); 41 mAU in [1] (Methanol, 435 h). Also, the “AUClast/D, analyte = dosed prodrug” value in [6] is 0.0136 ng·h/mL/mg/kg. In addition, in data set [7], the “Plasma concentration of Compound 1 relative to administration of Compound 1 alone” value is given as 5.5 fold. Also, the “Mechanical hypersensitivity versus baseline” value in data set [8] (oral 5 mg/kg) is given as 95% confidence intervals did not cross the baseline mean. Besides, the “Gram force to paw lift (von Frey)” value in data set [8] (oral 40 mg/kg, 1 h after pretreatment) was “increased the gram force to paw lift significantly”. Also, the “Reduction of latency of neuropathic ipsilateral paw withdrawal (pin prick)” value in data set [8] (oral 40 mg/kg, 1 h after pretreatment, p=0.0003) was 9.2 s. The Stability in solvent result in [9] (0.1 N HCl, over 4 days) is “appears to be stable”; in data set [9] (ethanol and methanol) it was “stable through 3 days”.
`CCOC(=O)Nc1ccc(NCc2ccc(F)cc2)cc1NC(=O)[C@@H](N)CCCCN` [Compound 4]: the “Solution remained clear and colorless through” value in [1] (5 mg/mL, all test solutions) is at least 18 days. For the same compound, the “Degradation / conversion” value in [1] (5 mg/mL) is given as “very little degradation to ezogabine”. Besides, the “Ezogabine Area” value in data set [1] (0.1N HCl, 269 h) is 0 mAU; in [1] (1N HCl, 269 h), 0 mAU; in [1] (2N HCl, 269 h), 38 mAU; in data set [1] (Methanol, 437 h), 0 mAU; in data set [1] (PBS, 435 h), 0 mAU. For the same compound, the “AUClast/D, analyte = dosed prodrug” value in data set [6] came to 6.26 ng·h/mL/mg/kg. Besides, in [6], the “Exposure of ezogabine compared with ezogabine itself (dose normalized AUC)” value was “similar”. In data set [10], the “Reduction in behavioral response (flicks/licks) compared to vehicle” value is 50%. Besides, the “Plasma concentration of Compound 1 relative to administration of Compound 1 alone” value in data set [7] turned out to be 9 fold. Besides, the Stability in plasma result in data set [11] is on record as “stable through 6 hours”. Besides, the “Protection from MES seizures” value is “fully protected” in data set [12] (2 through 8 hours post dose) and “almost fully protected” in data set [12] (1 h post dose).
As to `CCOC(=O)Nc1ccc(NCc2ccc(F)cc2)cc1NC(=O)[C@H](N)CO` [Compound 6], the “Solution remained clear and colorless through” value in [1] (5 mg/mL, all test solutions) is at least 18 days. Moreover, the “Degradation / conversion” value in data set [1] (5 mg/mL) is recorded as “very little degradation to ezogabine”. Moreover, the “Ezogabine Area” value in data set [1] (1N HCl, 437 h) is given as 58 mAU. Moreover, in data set [6], the “AUClast/D, analyte = dosed prodrug” value is 199 ng·h/mL/mg/kg and the “Exposure of ezogabine compared with ezogabine itself (dose normalized AUC)” value is reported as “similar”.
Consider `CCOC(=O)Nc1ccc(NCc2ccc(F)cc2)cc1NC(=O)C[C@@H](CN)CC(C)C` [Compound 28], for which the “Solution remained clear and colorless through” value in data set [1] (5 mg/mL, acidic solutions) was at least 18 days; in [1] (5 mg/mL, acidic solutions and acetonitrile) it was at least 11 days. For the same compound, the “Degradation / conversion” value in [1] (5 mg/mL) is “degradation to ezogabine with increasing strength of the acidic solution”. For the same compound, the “Ezogabine Area” value amounted to 0 mAU in data set [1] (0.1N HCl, 440 h) and 0 mAU in data set [1] (Methanol, 440 h). Moreover, the “% Remaining” value in [1] (440 h, 5 mg/mL) is 92.0%. In data set [6], the “AUClast/D, analyte = dosed prodrug” value was 83.0 ng·h/mL/mg/kg. Moreover, in data set [6], the “Exposure of ezogabine compared with ezogabine itself (dose normalized AUC)” value is on record as “lower exposure”. Besides, the “Concentration of prodrug relative to ezogabine” value in [7] (CF-1 mice, IP, 30 minutes) is reported as “present at higher concentrations than ezogabine”. For the same compound, the “Complete protection against MES induced seizures” value in data set [13] is “None of the doses showed complete protection”.

The values are drawn from patent US20240300894A1, “PRODRUGS OF KV7 CHANNEL OPENERS” (Xyzagen, Inc., priority 2021, published 2024).
